Marks after values point to notes of the source that are not given here. Ends that are not written are not given here.
What was measured:
Type in all cases: in vivo, BALB/c mice
[1] = system: NK cell; assay: NK cell cytotoxicity activity test (spleen cells of treated mice against YAC-1 target cells, MTT); conditions: for NK cell cytotoxic activity, X ± SD (%): healthy mice; for effect on the cytotoxic activity of NK cells (summary): statistically significant difference from saline in any of the dosage groups 0.5-500 μg/kg/day
Procedure, shortened: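 Mice (10 per group) dosed i.p. once daily for 15 days in saline; spleen cells harvested the next day. Splenocytes (4×10^6/ml) co-cultured with YAC-1 targets (1×10^5/ml), in triplicate per mouse. Viability by MTT (1 mg/ml, 4 h, 37 °C), read at OD570 against 630 nm.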

[2] = system: anti-SRBC antibody; assay: Sheep Red Blood Cell (SRBC) hemolysis test, antibody formation; conditions: for anti-SRBC antibody formation, X ± SD (Unit): healthy mice, SRBC day 12 (IFN-γ, IL-2 3×10^5 IU/kg/day), saline 32 ± 7; for effect on the synthesis of anti-SRBC antibody upon the antigenic challenge (summary): statistically significant difference from saline in any of the dosage groups 0.5-500 μg/kg/day
Procedure, shortened: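 Mice immunized intraperitoneally with 0.2 ml SRBC on day 12; serum taken on day 16, diluted 500-fold. Serum incubated with 2% SRBC and guinea pig complement 10 min at 37° C; released haemoglobin read at OD540 with Drabkin solution. Serum index = (sample OD540 ÷ reference OD540) × 500.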

[3] = system: mononuclear phagocyte; assay: Carbon particle clearance test, phagocytosis function; design: key to X ± SD (phagocytotic index): α = cube root of K × (body weight ÷ liver+spleen weight); conditions: for X ± SD (phagocytotic index): healthy mice, saline 5.1 ± 0.6; for effect on the phagocytotic activity of mononuclear phagocyte (summary): statistically significant difference from saline in any of the dosage groups 0.5-500 μg/kg/day
Procedure, shortened: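 Clearance index K came from OD680 of blood sampled 1 and 5 min after tail-vein India ink ([…], diluted 5×), given on day 16. Phagocytic index α combined K with liver, spleen […] weights taken the same day.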

[4] = system: spleen; assay: Immunity organ weight test, spleen index; conditions: for weight of spleen (spleen index), X ± SD (%): healthy mice, saline 0.53 ± 0.05; for effect on the weight of the spleen (summary): statistically significant difference from saline in any of the dosage groups 0.5-500 μg/kg/day
Procedure: (§1) One day after the last test substance administration (day 16), the liver, spleen, and thymus gland were separated and blotted dry with filter paper and weighed. The phagocytosis index α was calculated as below: α=(^3√{square root over ( )}K)(W÷WLS)
Spleen index (%)=(spleen weight/body weight)×100%

[5] = system: thymus gland; assay: Immunity organ weight test, thymus gland index; conditions: for weight of thymus gland (thymus gland index), X ± SD (%): healthy mice, saline 0.12 ± 0.02; for effect on the weight of the thymus gland (summary): statistically significant difference from saline in any of the dosage groups 0.5-500 μg/kg/day
Procedure: as §1
Thymus gland index (%)=(thymus weight/body weight)×100%

[6] = peptide 0.5 μg/kg/day i.p. 15 days
[7] = peptide 5 μg/kg/day i.p. 15 days
[8] = peptide 50 μg/kg/day i.p. 15 days
[9] = peptide 500 μg/kg/day i.p. 15 days
[10] = peptide 5 μg/kg/day i.p. 15 days (IFN-γ, IL-2 3×10^5 IU/kg/day)
[11] = peptide 500 μg/kg/day i.p. 15 days (IFN-γ, IL-2 3×10^5 IU/kg/day)
[12] = peptide 0.5 μg/kg/day i.p. 15 days (IFN-γ, IL-2 3×10^5 IU/kg/day), saline 58 ± 7
[13] = peptide 5 μg/kg/day i.p. 15 days (IFN-γ, IL-2 3×10^5 IU/kg/day), saline 60 ± 9
[14] = peptide 0.5 μg/kg/day i.p. 15 days (IFN-γ, IL-2 3×10^5 IU/kg/day)
[15] = peptide 50 μg/kg/day i.p. 15 days (IFN-γ, IL-2 3×10^5 IU/kg/day)
[16] = Table 28, peptide 5 μg/kg/day (so in the source) i.p. 15 days (IFN-γ, IL-2 3×10^5 IU/kg/day)
[17] = peptide 500 μg/kg/day i.p. 15 days (IFN-γ, IL-2 3×10^5 IU/kg/day), saline 63 ± 9

Substance	effect on the cytotoxic activity of NK cells (summary) [1]	anti-SRBC antibody formation, X ± SD (Unit) [2, 6]	anti-SRBC antibody formation, X ± SD (Unit) [2, 7]	anti-SRBC antibody formation, X ± SD (Unit) [2, 8]	anti-SRBC antibody formation, X ± SD (Unit) [2, 9]	X ± SD (phagocytotic index) [3, 10]	X ± SD (phagocytotic index) [3, 11]	effect on the phagocytotic activity of mononuclear phagocyte (summary) [3]	weight of spleen (spleen index), X ± SD (%) [4, 9]	effect on the weight of the spleen (summary) [4]	NK cell cytotoxic activity, X ± SD (%) [1, 13]	weight of thymus gland (thymus gland index), X ± SD (%) [5, 14]	weight of thymus gland (thymus gland index), X ± SD (%) [5, 15]	weight of thymus gland (thymus gland index), X ± SD (%) [5, 11]	effect on the weight of the thymus gland (summary) [5]	weight of thymus gland (thymus gland index), X ± SD (%) [5, 10]	also measured
FNFVPP [CMS003]	increase	2 ± 1 Unit	91 ± 24*^@ Unit	52 ± 11 Unit	96 ± 18*^@ Unit	6.9 ± 0.9*^	6.6 ± 0.7	enhance	0.40 ± 0.04 %	decrease	–	–	–	–	–	–	NK cell cytotoxic activity, X ± SD (%) ([1]; peptide 50 μg/kg/day i.p. 15 days (IFN-γ, IL-2 3×10^5 IU/kg/day), saline 56 ± 8): 85 ± 6 %
KAVGHLDDLPGAL [CMS008]	–	–	97 ± 26*^@ Unit	–	82 ± 15*^@ Unit	6.4 ± 0.5	6.5 ± 1.2	enhance	–	decrease	92 ± 4*^@^ %	0.22 ± 0.07*^ %	0.20 ± 0.04*^@^ %	0.21 ± 0.03*^@^ %	increase	–	NK cell cytotoxic activity, X ± SD (%) [1, 12]: 46 ± 12 %; effect on the synthesis of anti-SRBC antibody upon the antigenic challenge (summary) [2]: enhance; weight of spleen (spleen index), X ± SD (%) [4, 16]: 0.39 ± 0.08 %
LRVAPQQHPTL [CMS009]	increase	2 ± 1 Unit	79 ± 18*^@ Unit	13 ± 5 Unit	113 ± 22*^@^ Unit	6.9 ± 0.9*^	–	enhance	0.41 ± 0.03 %	decrease	92 ± 6*^@^ %	–	–	–	–	–	–
RVAPQQHPTL [CMS011]	increase	5 ± 3 Unit	115 ± 27*^@^ Unit	67 ± 9*^@ Unit	188 ± 16*^@^ Unit	6.4 ± 1.1	–	enhance	0.41 ± 0.04 %	decrease	76 ± 10 %	–	–	–	–	0.22 ± 0.04 %	NK cell cytotoxic activity, X ± SD (%) [1, 12]: 79 ± 3 %
Tyr Ser Leu (YSL; listed as Sus scrofa) [CMS024]	increase	98 ± 6*^@^ Unit	171 ± 39*^@^ Unit	–	75 ± 29*^@ Unit	–	6.4 ± 1.0	enhance	0.34 ± 0.05 %	decrease	78 ± 3 %	–	0.27 ± 0.02*^@^ %	–	increase	0.23 ± 0.06*^ %	NK cell cytotoxic activity, X ± SD (%) [1, 17]: 89 ± 8 %; effect on the synthesis of anti-SRBC antibody upon the antigenic challenge (summary) [2]: enhance; X ± SD (phagocytotic index) [3, 14]: 6.7 ± 0.5*^; X ± SD (phagocytotic index) [3, 15]: 6.6 ± 0.7
VAPEEHPTLLTEAPLNPK [CMS010]	increase	10 ± 3 Unit	–	–	112 ± 30*^@^ Unit	7.1 ± 0.7*^	–	enhance	–	decrease	82 ± 9 %	0.21 ± 0.03 %	–	0.19 ± 0.04 %	increase	0.27 ± 0.05*^@^ %	NK cell cytotoxic activity, X ± SD (%) [1, 17]: 91 ± 4*^@^ %; weight of spleen (spleen index), X ± SD (%) [4, 16]: 0.38 ± 0.05 %
VGMGQKDSY	–	12 ± 3 Unit	118 ± 20*^@^ Unit	–	91 ± 26*^@ Unit	6.8 ± 0.6*^	–	enhance	0.63 ± 0.08 %	increase	–	–	0.20 ± 0.03*^@^ %	0.19 ± 0.02 %	increase	0.24 ± 0.02*^@^ %	X ± SD (phagocytotic index) [3, 15]: 6.7 ± 0.9*^
VGMGQKDSYV [CMS020]	increase	10 ± 3 Unit	89 ± 24*^@ Unit	–	155 ± 35*^@^ Unit	–	6.4 ± 0.6	enhance	–	increase	91 ± 6 %	0.23 ± 0.05*^@^ %	0.27 ± 0.03*^@^ %	0.19 ± 0.04 %	increase	0.24 ± 0.07*^@^ %	weight of spleen (spleen index), X ± SD (%) [4, 14]: 0.68 ± 0.09*^@^ %

Source: patent publication US20060167229A1, “Biologically active peptide conjugates” (priority 2002, published 2006)
